Laboratory results: patent US20230405002A1, “COMBINATIONS OF DIACYLGLYCEROL ACYLTRANSFERASE 2 INHIBITORS AND ACETYL-COA CARBOXYLASE INHIBITOR” (Pfizer Inc., priority 2020, published 2023)
In brackets after ≈: the same amount, converted by molar mass.

Tests used:
human DGAT2 (hDGAT2) = human DGAT2 (hDGAT2) (Homo sapiens (Human), UniProt Q96PD7); assay: In vitro DGAT2 assay, determination of IC50 values; assay type: biochemical; conditions: geometric mean; hDGAT2 membrane fraction
[1] = molecular target: DGAT2 in human hepatocytes (Homo sapiens (Human), UniProt Q96PD7); assay: Determination of IC50 values for DGAT2 inhibitors in human hepatocytes; assay type: cell-based; conditions: geometric mean; cryopreserved human hepatocytes, DGAT1 inhibitor 3 μM present
DGAT2 in human hepatocytes, sequence (Q96PD7 whole entry): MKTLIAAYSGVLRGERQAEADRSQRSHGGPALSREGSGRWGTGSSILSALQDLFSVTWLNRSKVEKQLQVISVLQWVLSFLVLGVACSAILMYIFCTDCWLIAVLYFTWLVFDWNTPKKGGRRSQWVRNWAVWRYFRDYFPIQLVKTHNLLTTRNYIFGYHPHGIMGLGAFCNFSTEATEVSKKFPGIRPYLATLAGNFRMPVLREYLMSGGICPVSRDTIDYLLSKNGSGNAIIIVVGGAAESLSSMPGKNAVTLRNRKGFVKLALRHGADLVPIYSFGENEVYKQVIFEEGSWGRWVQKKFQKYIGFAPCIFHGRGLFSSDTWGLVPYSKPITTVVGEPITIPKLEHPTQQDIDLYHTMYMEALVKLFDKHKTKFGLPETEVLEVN
Procedure: For evaluation of the effects of DGAT2 inhibitors in a cell-based setting, cryopreserved human hepatocytes (Lot DOO, Celsis, Baltimore, MD) were thawed and plated onto type I collagen-coated plates according to the manufacturer's instructions. After 18 hours overnight recovery period, the cells were overlayed with media containing 250 μg/mL Geltrex Basement Membrane Matrix (Thermo Fisher). The following day, media was aspirated and replaced with serum-free Williams Media E (Thermo Fisher) containing 400 μM sodium dodecanoate (Sigma-Aldrich, St. Louis, MO) and 2 mM GlutaMAX (Thermo Fisher). […] DGAT2 inhibitors were then added to the desired final concentration. After a 15 minute preincubation, 0.2 μCi [^14C(U)]-glycerol (Perkin Elmer) was added to each well followed by a 3 hour incubation. At this point the media was removed, and the cells lysed via orbital shaking in isopropyl alcohol: tetrahydrofuran (9:1) for 15 minutes prior to centrifugation at 3000 rpm for 10 minutes. Radiolabeled lipids were resolved using a solvent system by thin layer chromatography with the solvent consisting of hexanes: diethyl ether: glacial acetic acid (75:23:2, v/v/v). After separation, radiolabeled lipids were visualized using the Typhoon 9500 phosphorimaging system (GE). The half maximal inhibitory concentrations (IC50 values) were determined by nonlinear regression analysis of the % inhibition dose response curve using GraphPad Prism (GraphPad Software, Inc., La Jolla, CA).
Table 12 below provides the IC50 values of selected Examples for inhibition of DGAT2 in human hepatocytes in accordance with the above-described assay. Results are reported as geometric mean IC50 values, with the number of replicates (n) shown.

human liver microsomes = assay: Intrinsic clearance in human liver microsomes; conditions: human liver microsome assay, 1 μM
[2] = Determination of pKa (capillary electrophoresis); conditions: most basic pKa, mean
human hepatocytes = assay: High throughput intrinsic clearance in human hepatocytes; conditions: high throughput human hepatocyte assay, 1 μM
[3] = test system: Western diet fed Sprague-Dawley rats; assay: In vivo effects of DGAT2 inhibitors on plasma and hepatic triglyceride levels (rat western diet model); conditions: oral 3, 10, 30, 100 mg/kg BID 7 days; dose dependent; vs western diet vehicle
Excerpt: The rat western diet model was utilized to assess the effects of DGAT2 inhibitor treatment on plasma triglyceride production and hepatic triglyceride content in vivo. Male Sprague-Dawley rats were housed under standard laboratory conditions on a 12-hour light, 12-hour dark cycle (lights on at 06:00). Two weeks prior to study start animals were placed on a high-fat, high sucrose, high-cholesterol diet (D12079b, provided by Research Diets, New Brunswick, NJ). This diet provides ˜43% of kilocalories from carbohydrate and ˜41% of kilocalories from fat. Example 4 was administered orally as a solution (10 mL/kg dosing volume) in 0.5% methylcellulose in deionized water, pH 7.0-7.5 (methylcellulose was obtained from Sigma-Aldrich, St. Louis, MO). […] Plasma TG levels were determined using a Roche Hitachi Chemistry analyzer according to the manufacturer's instructions (Roche Diagnostics Corporation, Indianapolis, IN) and data was analyzed using GraphPad Prism (GraphPad Software, Inc., La Jolla, CA). […] The triglyceride assay was performed through absorbance and reported as milligrams per deciliter. […]
FIG. 29 plots the multiple dose effects of Example 4 on Plasma Triglyceride in Western Diet Fed Sprague-Dawley Rats where plasma triglyceride levels were determined from blood drawn from the lateral tail vein 2-hours following the final dose of Example 4. […]

[4] = Thermodynamic solubility in various media; assay type: physicochemical
Procedure: The solubility of active pharmaceutical ingredients is an important characteristic in determining biological performance and ease of formulation during drug development, with high solubility being preferred (Klein, S. 2010, The AAPS Journal, 12, 397-406; Di, L., et al 2012, Drug Disc. Today, 17. 486-495). A test sample of crystalline solid (˜7 mg) was combined in a vial with 1 mL of the relevant buffer solution and the mixture vortexed to combine. If the solid dissolved completely, additional solid was added with vortexing until a saturated solution was obtained. The saturated solution/solid mixture was capped and subjected to temperature cycling as follows: 1 min at 25° C.; 8 h at 40° C.; 5 h at 15° C. and 12 h at 25° C. The mixture was filtered in a centrifugal filtration device (0.22 μm PVDF filter, MilliporeSigma, Milwaukee, WI) at 13,000 rpm and the concentration of the test compound in the filtrate was determined by HPLC/UPLC with reference to a three point standard curve. Phosphate buffered saline (PBS, pH 6.8, 50 mM phosphate buffer, 250 mM NaCl). Simulated gastric fluid (SGN pH 1.2, USP recipe). […]

human DGAT2 (hDGAT2), sequence (Q96PD7 whole entry): as above

Row | IC50 (human DGAT2 (hDGAT2)) [nM] | solubility at 25 h ([4]; FaSSIF (as printed, 25 °C, thermodynamic from solid), FaSSIF pH 6.8 (second line so printed; method also names FeSSIF)) [µg/mL] | solubility at 25 h ([4]; fasted state simulated intestinal fluid (FaSSIF), 25 °C, thermodynamic from solid, FaSSIF pH 6.8 (first line)) [µg/mL] | Compound | IC50 [1] [nM] | CLint (+/− STD Dev) (human liver microsomes) [µL/min/mg] | Basic pKa [2] | CLint (+/− Std Dev) (human hepatocytes) | reduction in liver triglycerides [3] | reduction in plasma triglycerides [3] [%]
1 | 10 | 1210 (≈ 2760 µM) | 700 (≈ 1600 µM) | CCOc1cccnc1Oc1cncc(-c2ncc(C(=O)N[C@@H]3CNC[C@@H](F)C3)cn2)c1 [Example 4, 2-{5-[(3-Ethoxypyridin-2-yl)oxy]pyridin-3-yl}-N-[(3S,5S)-5-fluoropiperidin-3-yl]pyrimidine-5-carboxamide] | 11 | – | – | – | up to 48% | ≤ 70
2 | 240 | – | – | CCOc1cccnc1Oc1cncc(-c2ncc(C(=O)N[C@@H]3CNCC(F)(F)C3)cn2)c1 (single isomer, unassigned) [Example 19, N-[(3S)-5,5-difluoropiperidin-3-yl]-2-{5-[(3-ethoxypyridin-2-yl)oxy]pyridin-3-yl}pyrimidine-5-carboxamide or N-[(3R)-5,5-difluoropiperidin-3-yl]-2-{5-[(3-ethoxypyridin-2-yl)oxy]pyridin-3-yl}pyrimidine-5-carboxamide] | – | 34 ± 1.9 | 5.2 | 14 +/− 1.4 μL/min/10^6 cells | – | –

Row | Compound | IC50 (human DGAT2 (hDGAT2)) [nM] | solubility at 25 h ([4]; FaSSIF (as printed, 25 °C, thermodynamic from solid), FaSSIF pH 6.8 (second line so printed; method also names FeSSIF)) [µg/mL] | solubility at 25 h ([4]; fasted state simulated intestinal fluid (FaSSIF), 25 °C, thermodynamic from solid, FaSSIF pH 6.8 (first line)) [µg/mL] | IC50 [1] [nM] | CLint (+/− STD Dev) (human liver microsomes) [µL/min/mg] | Basic pKa [2] | CLint (+/− Std Dev) (human hepatocytes) | reduction in liver triglycerides [3] | reduction in plasma triglycerides [3] [%]
3 | CCOc1cccnc1Oc1cncc(-c2ncc(C(=O)N[C@@H]3CNCC[C@@H]3F)cn2)c1.O=C(O)C(F)(F)F.O=C(O)C(F)(F)F [Example 3, 2-{5-[(3-Ethoxypyridin-2-yl)oxy]pyridin-3-yl}-N-[(3R,4S)-4-fluoropiperidin-3-yl]pyrimidine-5-carboxamide, bis(trifluoroacetate) salt] | 40 | – | – | 23 | <7 | 8.1 | <1.9 +/− 0.35 μL/min/10^6 cells | – | –
